# Measurements as given in PubChem BioAssay (NCI).
#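 GI50 = concentration required for 50% inhibition of growth. Definition used: TGI = concentration required for complete inhibition of growth.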
# Assays:
# Experiment in all cases: DTP human tumour cell line panel, 384-well format
# [1] = test system: MDA-MB-231 breast
# [2] = test system: NCI-H226 lung
# [3] = test system: SNB-75 CNS
# [4] = test system: NCI-H522 lung
# [5] = test system: 786-0 renal
# [6] = test system: BT-549 breast
# [7] = test system: LOX IMVI melanoma
# [8] = test system: OVCAR-5 ovarian
# [9] = test system: CCRF-CEM leukemia
# [10] = test system: SF-539 CNS
# [11] = test system: OVCAR-3 ovarian
# [12] = test system: HOP-92 NSCLC
# [13] = test system: COLO 205 colon
# [14] = test system: SR leukemia
# [15] = test system: PC-3 prostate
# [16] = test system: MCF7 breast
# [17] = test system: KM12 colon
# [18] = test system: SW-620 colon
# [19] = test system: SNB-19 CNS
# [20] = test system: MDA-MB-435 melanoma
# [21] = test system: DU-145 prostate
# [22] = test system: EKVX NSCLC
# [23] = test system: IGROV1 ovarian
# [24] = test system: HT29 colon
# [25] = test system: SK-OV-3 ovarian
# [26] = test system: NCI-H322M lung
# [27] = test system: SF-295 CNS
# [28] = test system: HOP-62 NSCLC
compound,measurement,setting,value
CCN1Cc2c(ccc(F)c2C#N)O[C@@H](C)CNC(=O)c2c(N)nn3ccc1nc23,GI50,[1],0.438 µM
same,TGI,[1],1.97 µM
same,GI50,[2],1.28 µM
same,TGI,[2],4.7 µM
same,GI50,[3],0.892 µM
same,TGI,[3],5.37 µM
same,GI50,[4],0.528 µM
same,TGI,[4],14.3 µM
same,GI50,[5],1.34 µM
same,TGI,[5],12.9 µM
same,GI50,[6],2.68 µM
same,TGI,[6],15.3 µM
same,GI50,[7],0.529 µM
same,TGI,[7],1.98 µM
same,GI50,[8],0.735 µM
same,TGI,[8],9.02 µM
same,GI50,[9],0.566 µM
same,TGI,[9],10.8 µM
same,GI50,[10],3.07 µM
same,TGI,[10],13.8 µM
same,GI50,[11],1.42 µM
same,TGI,[11],11.2 µM
same,GI50,[12],0.362 µM
same,TGI,[12],1.85 µM
same,GI50,[13],0.271 µM
same,TGI,[13],1.01 µM
same,GI50,[14],0.31 µM
same,TGI,[14],1.02 µM
same,GI50,[15],1.38 µM
same,TGI,[15],17.6 µM
same,GI50,[16],3.16 µM
same,TGI,[16],19.4 µM
same,TGI,[17],14.7 µM
same,GI50,[18],3.82 µM
same,TGI,[18],16.4 µM
same,GI50,[19],2.84 µM
same,TGI,[19],12.7 µM
same,GI50,[20],0.565 µM
same,TGI,[20],10.5 µM
same,GI50,[21],0.465 µM
same,TGI,[21],2.88 µM
same,GI50,[22],0.563 µM
same,TGI,[22],10.3 µM
same,GI50,[23],0.566 µM
same,TGI,[23],3.35 µM
same,GI50,[24],0.694 µM
same,TGI,[24],12.4 µM
same,GI50,[25],0.282 µM
same,TGI,[25],2.36 µM
same,GI50,[26],2.2 µM
same,TGI,[26],18.8 µM
same,GI50,[27],0.153 µM
same,TGI,[27],3.02 µM
same,GI50,[28],1.21 µM
same,TGI,[28],11.2 µM
